{
  "source": "patent US20230248627A1",
  "about": "“COMPOSITION FOR HAIR FOLLICLE MODULATION, METHODS AND USES THEREOF” (priority 2020, published 2023)",
  "key": {"[1]": {"system": "human melanocytes (SK-MEL-23 cell line)", "assay": "Intracellular melanin quantification in melanocytes treated in vitro", "type": "cell-based", "settings": "10 µM dipyridamole, 1% (v/v) DMSO, 3 days, normalized by protein levels", "method": "This example discloses an “in vitro” treatment of human melanocytes (SK-MEL-23 cell line) with a solution containing a modulation bioactive agent for darkening the skin.\nIn an embodiment, the bioactive agent used in this example was Dipyridamole as darkening agent in a solution containing water and DMSO.\nCells were seeded on 24-well plates at density of 9.0x10^4 cells/well and treated next day with 10 µM of dipyridamole and 1% (v/v) DMSO. In the control, cells were seeded on 24-well plates at density of 9.0x10^4 cells/well and treated next day with 1% (v/v) DMSO.\nThe intracellular melanin quantification was performed after 3 days. The method for quantifying melanin in hair was as described by Fernandes B. et al., 2016 [51]. The melanin contents were normalized by protein levels in each sample (DC Protein assay). Melanin change in cells treated with Dipyridamole was calculated using the following mathematical formula: […]"}, "human scalp [2]": {"system": "human scalp", "assay": "Pilot clinical study: hair melanin quantification after topical scalp application", "type": "in vivo", "settings": "for visible effect on hair colour: after 5 weeks of treatment; for Effectiveness (% of volunteers) / Hair Melanin change (% of control), max.: 5 weeks, 3 times per week", "method": "All the results present on the following described examples were performed in a pilot clinical study with intervention of cosmetic products (RNEC number: 92938), not contested by the Portuguese Legal Competent Authorities.\nThis example discloses the treatment of human scalp with a formulation containing a modulation bioactive agent for lightening the hair.\nThe modulation bioactive agent used in this example was Rivastigmine hydrogen tartrate as lightening agent in a formulation containing water, a thickener agent with emulsifying properties - Lecigel™, a preservative agent - Euxyl® PE 9010, denaturing alcohol and Transcutol® CG.\nThe volunteers for the application test of the formulation with the modulation agent Rivastigmine hydrogen tartrate had black to medium brown hair.\nEach volunteer received the formulation without the agent Rivastigmine hydrogen tartrate and the formulation with the agent Rivastigmine hydrogen tartrate.\n(§1) On each volunteer, the hair was shaved in two different posterior scalp locations, of approximately 1 cm^2 each, and the formulations were applied for 5 weeks, three times a week.\n(§2) The formulations with and without Rivastigmine were applied directly on scalp. Ten microliters per 1 cm^2 of the control formulation without Rivastigmine hydrogen tartrate were applied to one of the two shaved scalp areas while ten microliters per 1 cm^2 of the formulation with Rivastigmine hydrogen tartrate were applied to the other shaved scalp area.\nAfter the 15th application of formulations with and without the modulation agent, a final picture was taken, the growth rate of the hairs was measured, and some hairs were plucked for further tests.\nThe hair melanin quantification process was performed after the clinical cosmetic study conclusion, using hairs collected from the scalp areas treated with and without Rivastigmine hydrogen tartrate in a formulation. The control means the hair collected from the scalp area treated with the formulation without Rivastigmine hydrogen tartrate.\nIn an embodiment, the method for quantifying melanin in hair was as described by Fernandes B. et al., 2016 [51]. Hair samples were digested in NaOH and the solutions obtained normalized to 1 mg/mL of hair. Complete oxidation of hair lysates was performed with hydrogen peroxide and melanin content in hair samples calculated by fluoresce spectroscopy using a standard curve generated by the fluorescence of oxidized melanin standards. Melanin change in hair treated with a formulation with Rivastigmine was calculated using the following mathematical formula: […]\nThis example discloses the treatment of human scalp with a formulation containing a modulation bioactive agent for darkening the hair.\nIn an embodiment, the bioactive agent used in this example was Dipyridamole as darkening agent in a formulation containing water, a thickener agent with emulsifying properties - Lecigel™, a preservative agent - Euxyl® PE 9010, denaturing alcohol and Transcutol® CG.\nThe volunteers for the application test of the formulation with the modulation bioactive agent Dipyridamole had blond hair of different shades.\nEach volunteer received the formulation without the agent Dipyridamole and the formulation with the agent Dipyridamole.\nas §2, with “In an embodiment, the” for “The”, “Dipyridamole” for “Rivastigmine”, “Dipyridamole” for “Rivastigmine hydrogen tartrate”\n(§3) After the 15th application of formulations with and without the modulation bioactive agent, a final picture was taken, the growth rate of the hairs was measured, and some hairs were plucked for further tests.\nThe hair melanin quantification process was performed after the clinical cosmetic study conclusion, using hairs collected from the scalp areas treated with and without Dipyridamole in a formulation. […]"}, "human scalp [3]": {"system": "human scalp", "assay": "Pilot clinical study: hair curvature index after topical scalp application", "type": "in vivo", "settings": "for visible effect on hair shape: after 5 weeks of treatment; for Effectiveness (% of volunteers) / Hair shape change (% of control), max. / Hair shape change (% of control), mean: 5 weeks, 3 times per week; for Hair shape change (% of control), max. / Hair shape change (% of control), mean: curvature index", "from_the_text": "This example discloses the treatment of human scalp with a formulation containing a modulation bioactive agent for straightening the hair.\nThe bioactive agent used in this example was Midodrine hydrochloride as straightening agent in a formulation containing water, a thickener agent with emulsifying properties - Lecigel™, a preservative agent – Euxyl® PE 9010, denaturing alcohol and Transcutol® CG.\nThe volunteers for the application test of the formulation with the modulation bioactive agent Midodrine hydrochloride had curly hair.\nEach volunteer received the formulation without the agent Midodrine hydrochloride and the formulation with the agent Midodrine hydrochloride.\nas §1\nas §2, with “Midodrine” for “Rivastigmine”, “Midodrine hydrochloride” for “Rivastigmine hydrogen tartrate”\nAfter the 15th application of formulations with and without the modulation agent, a final picture was taken showing both sites of application, the growth rate of the hairs was measured, and some hairs were plucked for further tests.\n(§4) The curvature index was determined after the clinical cosmetic study conclusion, using hairs collected from the scalp areas treated with and without the modulation bioactive agent in a formulation. The control was the hair collected from scalp area treated with the formulation without the modulation bioactive ingredient.\nThe effect on curvature index was calculated according to the following formula: […]\nEach hair was individually measured over a white paper (hair in a relaxed form) and a force was applied in order to keep the hair straight (under stress) and, in this way, measure the length of hair in stressed form.\nThis example discloses the treatment of human scalp with a formulation containing a modulation bioactive agent for curling the hair.\nThe modulation bioactive agent used in this example was Topiramate as curling agent in a formulation containing water, a thickener agent with emulsifying properties - Lecigel™, a preservative agent - Euxyl® PE 9010, denaturing alcohol and Transcutol® CG.\nThe volunteers for the application test of the formulation with the modulation agent Topiramate had straight hair.\nEach volunteer received the formulation without the agent Topiramate and the formulation with the agent Topiramate.\nas §2, with “Topiramate” for “Rivastigmine”, “Topiramate” for “Rivastigmine hydrogen tartrate”\nas §3\nas §4, with “collected from the scalp area” for “collected from scalp area”"}, "[4]": {"settings": "Straightening, 0.25% w/w formulation, curly-haired volunteers"}, "[5]": {"settings": "Curling, 1.75% w/w formulation, straight-haired volunteers"}},
  "note": "Structures can show the parent of a compound that is named as a salt.",
  "data": [
    {"molecule": "OCCN(CCO)c1nc(N2CCCCC2)c2nc(N(CCO)CCO)nc(N3CCCCC3)c2n1", "note": "[Dipyridamole]", "values": [
      {"measurement": "increase in melanin production relative to the control experiment", "setting": "[1]", "value": 3.5, "unit": "fold"},
      {"measurement": "visible effect on hair colour", "setting": "human scalp [2]; 0.01% w/w formulation on scalp", "value": "induced a darkening effect"},
      {"measurement": "Effectiveness (% of volunteers)", "setting": "human scalp [2]; Darkening, 0.01% w/w formulation on scalp, blond hair", "value": "67.0 % of volunteers"},
      {"measurement": "Hair Melanin change (% of control), max.", "setting": "human scalp [2]; Darkening, 0.01% w/w formulation, blond hair", "value": "+57.9%"}
    ]},
    {"molecule": "COc1ccc(OC)c(C(O)CNC(=O)CN)c1", "note": "(stereo not drawn) [Midodrine HCl, Midodrine hydrochloride]", "values": [
      {"measurement": "visible effect on hair shape", "setting": "human scalp [3]; 0.25% w/w formulation on scalp, very curly hair", "value": "induced a straightening effect"},
      {"measurement": "Effectiveness (% of volunteers)", "setting": "human scalp [3]; Straightening, 0.25% w/w formulation on scalp, curly-haired volunteers", "value": 75.0, "unit": "%"},
      {"measurement": "Hair shape change (% of control), max.", "setting": "human scalp [3]; [4]", "value": "+120.0%"},
      {"measurement": "Hair shape change (% of control), mean", "setting": "human scalp [3]; [4]", "value": "+76.0%"}
    ]},
    {"molecule": "CCN(C)C(=O)Oc1cccc([C@H](C)N(C)C)c1", "note": "[Rivastigmine, Rivastigmine hydrogen tartrate]", "values": [
      {"measurement": "visible effect on hair colour", "setting": "human scalp [2]; 0.2% w/w formulation on scalp", "value": "induced a lightening effect"},
      {"measurement": "Effectiveness (% of volunteers)", "setting": "human scalp [2]; Lightening, 0.2% w/w formulation on scalp, black to medium brown hair", "value": "50.0 % of volunteers"},
      {"measurement": "Hair Melanin change (% of control), max.", "setting": "human scalp [2]; Lightening, 0.2% w/w formulation, black to medium brown hair", "value": -26.3, "unit": "%"}
    ]},
    {"molecule": "CC1(C)O[C@@H]2[C@@H](CO[C@@]3(COS(N)(=O)=O)OC(C)(C)O[C@@H]23)O1", "note": "[Topiramate]", "values": [
      {"measurement": "visible effect on hair shape", "setting": "human scalp [3]; 1.75% w/w formulation on scalp, straight hair", "value": "induced a curling effect"},
      {"measurement": "Effectiveness (% of volunteers)", "setting": "human scalp [3]; Curling, 1.75% w/w formulation on scalp, straight-haired volunteers", "value": 83.3, "unit": "%"},
      {"measurement": "Hair shape change (% of control), max.", "setting": "human scalp [3]; [5]", "value": -11.0, "unit": "%"},
      {"measurement": "Hair shape change (% of control), mean", "setting": "human scalp [3]; [5]", "value": -10.0, "unit": "%"}
    ]}
  ]
}
